These results are taken from US6544996B2, “1-phenyl-4-(1-[2-aryl]cyclopropyl) methylpiperazines: dopamine receptor ligands” (Neurogen Corporation, priority 1999, dated 2003).

As a reminder, the melting point is the temperature, or range, at which the solid turns liquid. By pKi is commonly meant the Ki on a negative log10 scale, so that one unit is a factor of ten.

Data set [1] concerns the target T1, recombinantly produced D4 receptors from human (COS cells) (Homo sapiens, UniProt P21917).
T1 construct: expressed in transfected cells; host or cells: COS cells
T1 sequence (P21917 1-419): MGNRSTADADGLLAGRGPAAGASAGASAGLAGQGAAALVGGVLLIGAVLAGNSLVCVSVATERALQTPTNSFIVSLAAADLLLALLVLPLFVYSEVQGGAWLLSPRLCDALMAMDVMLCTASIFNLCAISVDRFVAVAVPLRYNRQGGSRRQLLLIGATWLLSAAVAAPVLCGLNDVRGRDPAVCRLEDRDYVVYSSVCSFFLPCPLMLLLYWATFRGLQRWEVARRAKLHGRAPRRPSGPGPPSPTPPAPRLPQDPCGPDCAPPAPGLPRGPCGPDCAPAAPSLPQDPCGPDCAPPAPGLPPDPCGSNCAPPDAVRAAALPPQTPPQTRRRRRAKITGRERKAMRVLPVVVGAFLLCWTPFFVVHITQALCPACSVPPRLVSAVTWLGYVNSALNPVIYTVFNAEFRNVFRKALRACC
The experiment in a line: Determination of D4 receptor binding activity (3H-YM 09151-2 displacement). Here is the method:
(§1) Pellets of COS cells containing recombinantly produced D2 or D4 receptors from human are used for the assays. The sample is homogenized in 100 volumes (w/vol) of 0.05 M Tris HCl buffer at 4° C. and pH 7.4. The sample is then centrifuged at 30,000×g and resuspended and rehomogenized. The sample is then centrifuged as described and the final tissue sample is frozen until use. The tissue is resuspended […] (wt/vol) in 0.05 M Tris HCl buffer containing 100 mM NaCl.

Data set [2] concerns the target T2, recombinantly produced D2 receptors from human (COS cells) (Homo sapiens, UniProt P14416).
T2 construct: expressed in transfected cells; host or cells: COS cells
The experiment in a line: biochemical. It counts as binding. The note with it: COS cell pellets, 0.5 nM 3H-YM 09151-2. The protocol: as §1

SMILES strings stand for the structures. pKi: −log10 of the molar value.

T2 sequence (P14416 whole entry): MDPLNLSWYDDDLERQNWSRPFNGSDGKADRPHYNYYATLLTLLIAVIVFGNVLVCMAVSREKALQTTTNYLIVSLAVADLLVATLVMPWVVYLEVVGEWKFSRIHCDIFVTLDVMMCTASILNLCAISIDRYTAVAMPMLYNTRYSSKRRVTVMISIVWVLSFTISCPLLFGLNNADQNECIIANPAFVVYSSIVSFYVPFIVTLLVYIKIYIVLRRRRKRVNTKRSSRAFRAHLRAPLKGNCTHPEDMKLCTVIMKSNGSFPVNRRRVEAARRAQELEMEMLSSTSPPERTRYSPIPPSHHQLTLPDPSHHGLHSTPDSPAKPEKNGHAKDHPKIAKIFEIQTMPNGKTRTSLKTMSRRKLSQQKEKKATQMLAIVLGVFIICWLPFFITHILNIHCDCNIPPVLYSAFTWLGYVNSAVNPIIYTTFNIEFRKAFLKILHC

For the compound `Br.Cc1cc(N)ccc1N1CCN(C[C@@H]2C[C@H]2c2ccccc2)CC1` (relative stereo), the melting point lay within 284 to 285 °C. As to `Clc1ccc([C@H]2C[C@@H]2CN2CCN(c3ccc(Cl)cc3)CC2)cc1` (relative stereo) [Compound 3, 1-(4-chlorophenyl)-4-(trans-2-[4-chlorophenyl]cyclopropyl)methylpiperazine], the pKi in data set [1] was 8.10; in data set [2], 6.28.

`Br.Cc1cc(Br)ccc1N1CCN(C[C@@H]2C[C@H]2c2ccccc2)CC1` (relative stereo) had a melting point of 182 to 183 °C. For `Br.Cc1cc([N+](=O)[O-])ccc1N1CCN(C[C@@H]2C[C@H]2c2ccccc2)CC1` (relative stereo), the melting point was in the range of 197 to 198 °C.
